Publication PMC12056667 (Chemical Science, 2025)
Read-outs that look alike come from different tables or passages of the source.

How the values were obtained:
[1] = target: Tet(X4) (Escherichia coli, UniProt A0A3T0V9Y5); assay: FP competitive displacement of probe 6; assay type: binding; conditions: 25 nM 6, 40 nM Tet(X4), 5 mM MgCl2, 1 μM FAD, 100 mM Tris pH 7.0, 0.01% Triton X-100
Method: A 2× solution containing 80 nM Tet(X4), 2 μM FAD and 10 mM MgCl2 in the assay buffer was dispensed into the first 22 columns of a 384-well black, non-binding microtiter plate (Greiner Bio-One), 12.5 μL per well, using a microplate reagent dispenser. A solution of 2 μM FAD and 10 mM MgCl2 in the assay buffer was dispensed into the remaining columns to serve as a no enzyme control. A 3-fold, 10-point dilution series of substrates and inhibitors was made in DMSO in a V-bottom 96-well plate (Greiner Bio-One) with a highest concentration of 5 mM or 0.5 mM. Into one column was added DMSO with no inhibitor or substrate, to serve as a positive control. Tigecycline was included as a reference on every plate to ensure reproducibility. 0.5 μL of each dilution was transferred in quadruplicate to the 384-well plate containing enzyme solution using a CyBi-Well liquid-handling robot (CyBio). A solution of 50 nM 6 in the assay buffer was then dispensed, with 12.5 μL per well. The plate was briefly centrifuged (1000 rpm), then incubated at ambient temperature for 30 min prior to measuring the FP. Data points were normalised between the positive and negative controls. Normalised % response was plotted as a function of log10([Inhibitor]), and the IC50^app was determined by fitting the data to the equation: Y = Bottom + (top-bottom)/(1 + 10^Log(IC50) − X) × HillSlope in GraphPad Prism 9.4.1, where Y = % response and X = log10([Inhibitor]). Wells with unusual fluorescence intensities were manually identified and removed from the analysis. […]

[2] = tested on: E. coli TOP10 containing plasmid pBAD-TOPO-Tet(X4); assay: Broth microdilution MIC and checkerboard assay; assay type: cell-based, Escherichia coli; conditions: alone; without L-arabinose induction
Text: Tet(X4) was sub-cloned from the Tet(X4) pET28b-(+) expression vector via TOPO cloning. The insert was amplified using the taq polymerase with the forward primer 5′- […]-3′ and the reverse primer 5′- […]-3’. Following PCR purification (Thermo Fisher Scientific), the A-tailed PCR product was ligated into the pBAD-TOPO vector using a TOPO cloning kit (Invitrogen) according to the manufacturer's protocol. Following amplification in E. coli NEB5α cells (NEBiolabs), the fidelity of the insert was confirmed by Sanger sequencing (Eurofins). For microbiological experiments, E. coli TOP10 cells were used as the recipient strain. Cells were plated on Mueller-Hinton agar (MHA) plates containing ampicillin at 100 μg mL^−1. The introduction of pBAD-TOPO-Tet(X4) was confirmed by colony PCR. Strains were stored in a freezer at −80 °C in cryopreservation beads.
(§1) MIC tests and checkerboard assays were performed in U-bottom, 96-well microtiter plates using a modified broth microdilution protocol following CLSI guidelines. Cation-adjusted Mueller-Hinton Broth (CAMHB) was prepared fresh on the day of testing.[74] […] Bacterial colonies were selected from an overnight culture on MHA plates (supplemented with 0.2%w/vL-arabinose for E. coli TOP10 containing pBAD-TOPO-Tet(X4)) and were suspended in 0.9% saline solution to achieve a 0.5 McFarland standard. A 100 μL aliquot of this suspension was then diluted into 9.9 mL of CAMHB to yield approximately 1.5 × 10^6 cfu mL^−1. 50 μL of the suspension was then added to each well of a microtiter plates. Plates were incubated at 37 °C for 18 h. At least 2 replicates were conducted for each combination. E. coli TOP10 + pBAD-TOPO-Tet(X4) cells were grown in the absence and presence of 0.2%w/vL-arabinose. Analysis of the MIC and checkerboard results were carried out by visual inspection of growth, with and without resazurin dye, an oxidation–reduction indicator.[75] As a measure of synergy, fractional inhibitory concentration index (FICI) was calculated as FICA + FICB, where FICA and FICB are the MICcombination/MICalone for each agent, respectively.[76] Results were interpreted as follows: synergistic (<0.5), indifferent (1.0–4.0) or antagonistic (>4.0).[64] In cases where the MIC exceeded or was below the measured range, the borderline value was taken to calculate the FIC index.

[3] = tested on: Proteus penneri NT6-2 – tet(X6); assay: microbe, parasite or virus in culture; assay type: cell-based
Method: as §1

[4] = tested on: Escherichia coli T-24a – tet(X4); assay: microbe, parasite or virus in culture; assay type: cell-based
Method: as §1

[5] = tested on: Acinetobacter baumannii NT5-1 – tet(X5); assay: microbe, parasite or virus in culture; assay type: cell-based
Method: as §1

[6] = tested on: Salmonella enterica T-2a – tet(X4); assay: microbe, parasite or virus in culture; assay type: cell-based
Method: (§2) MIC tests and checkerboard assays were performed in U-bottom, 96-well microtiter plates using a modified broth microdilution protocol following CLSI guidelines. Cation-adjusted Mueller-Hinton Broth (CAMHB) was prepared fresh on the day of testing.[74] In brief, assays were set up in a total volume of 100 μL per well and titrations comprised seven 2-fold dilutions of inhibitors and ten 2-fold dilutions of tigecycline in CAMHB. Bacterial colonies were selected from an overnight culture on MHA plates (supplemented with 0.2%w/vL-arabinose for E. coli TOP10 containing pBAD-TOPO-Tet(X4)) and were suspended in 0.9% saline solution to achieve a 0.5 McFarland standard. A 100 μL aliquot of this suspension was then diluted into 9.9 mL of CAMHB to yield approximately 1.5 × 10^6 cfu mL^−1. 50 μL of the suspension was then added to each well of a microtiter plates. Plates were incubated at 37 °C for 18 h. At least 2 replicates were conducted for each combination. E. coli TOP10 + pBAD-TOPO-Tet(X4) cells were grown in the absence and presence of 0.2%w/vL-arabinose. Analysis of the MIC and checkerboard results were carried out by visual inspection of growth, with and without resazurin dye, an oxidation–reduction indicator.[75] As a measure of synergy, fractional inhibitory concentration index (FICI) was calculated as FICA + FICB, where FICA and FICB are the MICcombination/MICalone for each agent, respectively.[76] Results were interpreted as follows: synergistic (<0.5), indifferent (1.0–4.0) or antagonistic (>4.0).[64] In cases where the MIC exceeded or was below the measured range, the borderline value was taken to calculate the FIC index.

[7] = tested on: Acinetobacter spp. NT3-1 – tet(X3); assay: microbe, parasite or virus in culture; assay type: cell-based
Method: as §2

[8] = IC50app, Tet(X4) (Polarization)
[9] = inhibitor in combination with tigecycline, lowest FICI
[10] = tigecycline in combination with the inhibitor, lowest FICI

## CCN(CC)C(=S)SSC(=S)N(CC)CC [Disulfiram]
[1]; [8]
  IC50: > 100000 nM

## CN(C)[C@@H]1C(O)=C(C(N)=O)C(=O)[C@@]2(O)C(O)=C3C(=O)c4c(O)cccc4C[C@H]3C[C@@H]12 [Sancycline]
[1]; IC50app, FP assay
  IC50: 47 ± 7.1 nM

## CN(C)[C@@H]1C(O)=C(C(N)=O)C(=O)[C@@]2(O)C(O)=C3C(=O)c4c(O)ccc(Cl)c4[C@@](C)(O)[C@H]3C[C@@H]12 [Chlortetracycline]
[1]; IC50app, FP assay
  IC50: 39 ± 9.6 nM

## Nc1nc2c(c(=O)[nH]1)N(C=O)C(CNc1ccc(C(=O)N[C@@H](CCC(=O)O)C(=O)O)cc1)CN2 (stereo partly shown) [Calcium folinate]
[1]; [8]
  IC50: > 100000 nM

## C=C1c2cccc(O)c2C(=O)C2=C(O)[C@]3(O)C(=O)C(C(N)=O)=C(O)[C@@H](N(C)C)[C@@H]3[C@@H](O)[C@H]12 [Methacycline]
[1]; IC50app, FP assay
  IC50: 311 ± 36 nM

## NCCS [Cysteamine]
[1]; read-out: IC50app, Tet(X4) (Polarization)
  IC50: > 100000 nM

## CN(C)[C@@H]1C(O)=C(C(N)=O)C(=O)[C@@]2(O)C(O)=C3C(=O)c4c(O)cccc4[C@@](C)(O)[C@H]3[C@H](O)[C@@H]12 [Oxytetracycline]
[1]; IC50app, FP assay
  IC50: 4430 ± 260 nM

## COc1ccnc(C[S+]([O-])c2nc3cc(-n4cccc4)ccc3[nH]2)c1C (stereo not shown) [Ilaprazole]
[1]; [8]
  IC50: > 100000 nM

## CN(C)[C@@H]1C(O)=C(C(N)=O)C(=O)[C@@]2(O)C(O)=C3C(=O)c4c(O)cccc4[C@@](C)(O)[C@H]3C[C@@H]12 [Tetracycline]
[1]; IC50app, FP assay
  IC50: 69.6 ± 8.8 nM
[2]
  Antibiotic MIC: 4 µg/mL

## C[C@]12CCC(=O)C=C1[C@@H]1C[C@@H]1[C@H]1[C@@H]3[C@@H]4C[C@@H]4[C@@]4(CCC(=O)O4)[C@@]3(C)CC[C@@H]12 [Drosperinone]
[3]; alone, P. penneri NT6-2
  Tet(X) inhibitor MIC: > 128 µg/mL
[3]; [9]
  Combination (Antibiotic/Inhibitor) MICs: inhibitor: 128 µg/mL
[3]; [10]
  Combination (Antibiotic/Inhibitor) MICs: antibiotic: 8 µg/mL
[3]; with tigecycline
  FICI: 2
  Outcome: indifferent (indifferent (0.5-4.0))
[4]; alone, E. coli T-24a
  Tet(X) inhibitor MIC: 256 µg/mL
[4]; [10]
  Combination (Antibiotic/Inhibitor) MICs: antibiotic: 8 µg/mL
[4]; with tigecycline
  FICI: 1
  Outcome: indifferent (indifferent (0.5-4.0))
[5]; alone, A. baumannii NT5-1
  Tet(X) inhibitor MIC: > 128 µg/mL
[5]; [9]
  Combination (Antibiotic/Inhibitor) MICs: inhibitor: 128 µg/mL
[5]; [10]
  Combination (Antibiotic/Inhibitor) MICs: antibiotic: 4 µg/mL
[5]; with tigecycline
  FICI: 1.5
  Outcome: indifferent (indifferent (0.5-4.0))
[6]; [10]
  Combination (Antibiotic/Inhibitor) MICs: antibiotic: 16 µg/mL
[6]; with tigecycline
  FICI: 1.5
  Outcome: indifferent (indifferent (0.5-4.0))
[7]; alone, Acinetobacter spp. NT3-1
  Tet(X) inhibitor MIC: 128 µg/mL
[7]; [9]
  Combination (Antibiotic/Inhibitor) MICs: inhibitor: 128 µg/mL
[7]; [10]
  Combination (Antibiotic/Inhibitor) MICs: antibiotic: 4 µg/mL
[7]; with tigecycline
  FICI: 2
  Outcome: indifferent (indifferent (0.5-4.0))

## CCC1(c2cnc[nH]2)Cc2ccccc2C1 [Atipamezole]
[1]; [8]
  IC50: > 100000 nM

## Nc1ccc2cc3ccc(N)cc3nc2c1 [Proflavine]
[1]; [8]
  IC50: > 100000 nM

## CN(C)c1ccc(O)c2c1C[C@H]1C[C@H]3[C@H](N(C)C)C(O)=C(C(N)=O)C(=O)[C@@]3(O)C(O)=C1C2=O [Minocycline]
[1]; IC50app, FP assay
  IC50: 51.5 ± 3.6 nM

## CN(C)[C@@H]1C(O)=C(C(N)=O)C(=O)[C@@]2(O)C(O)=C3C(=O)c4c(O)c(NC(=O)CN5CCCC5)cc(F)c4C[C@H]3C[C@@H]12 [Eravacycline]
[1]; IC50app, FP assay
  IC50: 13.7 ± 1.6 nM

## NCCc1ccc(O)c(O)c1 [Dopamine]
[1]; [8]
  IC50: > 100000 nM

## CON(C)Cc1ccc(O)c2c1C[C@H]1C[C@H]3[C@H](N(C)C)C(O)=C(C(N)=O)C(=O)[C@@]3(O)C(O)=C1C2=O [Sarecycline]
[1]; IC50app, FP assay
  IC50: 31.5 ± 10 nM

## N=C(N)c1ccc(/N=N/Nc2ccc(C(=N)N)cc2)cc1 [Diminazene]
[1]; [8]
  IC50: > 100000 nM

## CN(C)[C@@H]1C(O)=C(C(N)=O)C(=O)[C@@]2(O)C(O)=C3C(=O)c4c(O)ccc(Cl)c4[C@@H](O)[C@H]3C[C@@H]12 [Demeclocycline]
[1]; IC50app, FP assay
  IC50: 29 ± 4.6 nM

## C[C@@H](Oc1cc(-c2cnn(C3CCNCC3)c2)cnc1N)c1c(Cl)ccc(F)c1Cl [Crizotinib]
[1]; [8]
  IC50: > 100000 nM

## CN(C)c1cc(CNCC(C)(C)C)c(O)c2c1C[C@H]1C[C@H]3[C@H](N(C)C)C(O)=C(C(N)=O)C(=O)[C@@]3(O)C(O)=C1C2=O [Omadacycline]
[1]; IC50app, FP assay
  IC50: 24.3 ± 4 nM

## NC(=O)c1ncn([C@@H]2O[C@H](CO)[C@@H](O)[C@H]2O)c1O [Mizoribine]
[1]; [8]
  IC50: > 100000 nM
